In assay [1] the target is T1, Avi-KRAS G12D (1-169) GppNHp/RAF1 RBD-3xFLAG (52-151) (Homo sapiens, UniProt P01116, G12D).
T1 construct: Avi-KRAS G12D (1-169)
The experiment in a line: Raf1-KRAS G12D-GppNHP disruption HTRF assay (Biological Example 1). Type of assay: binding. Conditions: KRAS G12D, GppNHp-loaded; class symbols. An outline of the steps:
(§1)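 Read-out is HTRF signal of the KRAS–RAF1 RBD complex, reported as percentage of activity relative to DMSO (100%). Protein mix and detection reagents each incubated 1 h at room temperature with 700 rpm shaking. Buffer: 50 mM Tris pH 7.5, 100 mM NaCl, 5 mM MgCl2, 0.1% BSA, 0.01% Tween, 10% DMSO.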

Assay [2] deals with T2, Avi-KRAS G12R (1-169) GppNHp/RAF1 RBD-3xFLAG (52-151) (Homo sapiens, UniProt P01116, G12R).
T2 construct: Avi-KRAS G12R (1-169)
T2 sequence (P01116 1-169 isoform P01116-2 G12R): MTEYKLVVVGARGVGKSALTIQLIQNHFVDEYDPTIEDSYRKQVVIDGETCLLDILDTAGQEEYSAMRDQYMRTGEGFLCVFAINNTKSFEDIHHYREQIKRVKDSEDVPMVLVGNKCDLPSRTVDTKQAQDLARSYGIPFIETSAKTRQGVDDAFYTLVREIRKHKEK
The experiment in a line: Raf1-KRAS G12R-GppNHP disruption HTRF assay (Biological Example 1). The format is binding. The following applies: KRAS G12R, GppNHp-loaded; class symbols. Put shortly:
as §1
For orientation: In TR-FRET formats the signal depends on donor and acceptor labels being close together.

For assay [3], the target named is T3, Avi-KRAS G12V (1-169) GppNHp/RAF1 RBD-3xFLAG (52-151) (Homo sapiens, UniProt P01116, G12V).
T3 construct: Avi-KRAS G12V (1-169)
T3 sequence (P01116 1-169 isoform P01116-2 G12V): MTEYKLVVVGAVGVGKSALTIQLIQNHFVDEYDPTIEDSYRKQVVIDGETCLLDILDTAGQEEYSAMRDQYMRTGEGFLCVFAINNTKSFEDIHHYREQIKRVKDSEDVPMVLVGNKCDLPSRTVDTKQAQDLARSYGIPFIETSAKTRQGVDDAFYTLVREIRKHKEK
The experiment in a line: Raf1-KRAS G12V-GppNHP disruption HTRF assay (Biological Example 1). The format is binding. Conditions: KRAS G12V, GppNHp-loaded; class symbols. An outline of the steps: as §1

Assay [4] has as its target T4, Avi-KRAS WT (1-169) GppNHp/RAF1 RBD-3xFLAG (52-151) (Homo sapiens, UniProt P01116).
T4 construct: Avi-KRAS WT (1-169)
The experiment in a line: Raf1-KRAS WT-GppNHP disruption HTRF assay (Biological Example 1). Type of assay: binding. The following applies: KRAS WT, GppNHp-loaded; class symbols. Put shortly: as §1

Assay [5] deals with GP2d cells (KRAS G12D). The experiment in a line: Cell-based pERK HTRF assay in GP2d cell (Biological Example 2). Conditions: GP2d, GP2d (KRAS G12D) cells, pERK HTRF; class symbols. Put shortly: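 Phospho-ERK in lysed cells was detected by HTRF using Eu cryptate and d2 antibodies, read between 4 and 24 h at room temperature. Prior to lysis, KRAS G12D GP2d cells, seeded the day before in DMEM with 10% FBS, were exposed to compounds for 60 min. Compounds were tested as 9-point half-log curves from 1 μM or 100 nM top, with 0.25% DMSO.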

In assay [6] the test system is SW620 cells (KRAS G12V). The experiment in a line: Cell-based pERK HTRF assay in SW620 cell (Biological Example 4). The following applies: Homo sapiens, SW-620, SW620 (KRAS G12V) cells, pERK HTRF; class symbols. Put shortly: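 SW620 seeded in RPMI/10% FBS, next day dosed 4 h (top 1 μM, half-log, 9 pts, 0.25% DMSO). Lysed, pERK by d2/Eu cryptate HTRF, 4–24 h RT, 615 nm read.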

In general, IC50 refers to the midpoint of a concentration-inhibition curve. Read a low IC50 as greater potency in that assay.

T1 sequence (P01116 1-169 isoform P01116-2 G12D): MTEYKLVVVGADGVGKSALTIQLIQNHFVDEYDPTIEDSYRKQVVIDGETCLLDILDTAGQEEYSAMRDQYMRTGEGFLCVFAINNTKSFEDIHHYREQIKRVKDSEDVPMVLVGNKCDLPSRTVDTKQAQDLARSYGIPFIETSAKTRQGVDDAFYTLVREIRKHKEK
T4 sequence (P01116 1-169 isoform P01116-2): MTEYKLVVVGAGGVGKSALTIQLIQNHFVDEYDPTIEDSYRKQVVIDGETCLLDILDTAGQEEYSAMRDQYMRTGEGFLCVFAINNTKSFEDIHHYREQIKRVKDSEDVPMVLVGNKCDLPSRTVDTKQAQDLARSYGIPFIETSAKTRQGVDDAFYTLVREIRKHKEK

`CCN(c1nc(OC[C@@]23CCCN2C[C@H](F)C3)nc2c(F)c(-c3ccc(F)c4sc(N)c(C#N)c34)c(C(F)(F)F)cc12)[C@H]1CCN(C(=O)N2CC(C#N)C2)C1` (atropisomer, axis not shown) [Compound 778]: the IC50 in assay [1], in assay [2], in assay [3], in assay [4], in assay [5] and in assay [6] was below 100 nM each time.

In the case of `N#Cc1c(N)sc2c(F)ccc(-c3c(C(F)(F)F)cc4c(N(C5CC5)[C@H]5CCN(C(=O)[C@@H]6CC6(F)F)C5)nc(OC[C@@]56CCCN5C[C@H](F)C6)nc4c3F)c12` (atropisomer, axis not shown) [Compound 779], the IC50 is below 100 nM in assay [1]; 100 to 1000 nM in assay [2]; 100 to 1000 nM in assay [3]; 100 to 1000 nM in assay [4]; below 100 nM in assay [5]; below 100 nM in assay [6].

For `CCN(c1nc(OC[C@@]23CCCN2C[C@H](F)C3)nc2c(F)c(-c3ccc(F)c4sc(N)c(C#N)c34)c(C(F)(F)F)cc12)[C@H]1CCN(C(=O)N2CC(F)C2)[C@@H]1C` (atropisomer, axis not shown) [Compound 780], the concentration for half-maximal inhibition (IC50) in assay [1], in assay [2], in assay [3], in assay [4], in assay [5] and in assay [6] was below 100 nM in each case.

As for `CCN(c1nc(OC[C@@]23CCCN2C[C@H](F)C3)nc2c(F)c(-c3ccc(F)c4sc(N)c(C#N)c34)c(C(F)(F)F)cc12)[C@H]1CCN(C(=O)[C@H](C)OC)[C@@H]1C` (atropisomer, axis not shown) [Compound 781], the IC50 was below 100 nM in assay [1]; below 100 nM in assay [2]; 100 to 1000 nM in assay [3]; below 100 nM in assay [4]; below 100 nM in assay [5]; below 100 nM in assay [6].

Take `CCN(c1nc(OC[C@@]23CCCN2C[C@H](F)C3)nc2c(F)c(-c3ccc(F)c4sc(N)c(C#N)c34)c(C(F)(F)F)cc12)[C@H]1C[C@@H](C)N(C(=O)N2CC(F)C2)C1` (atropisomer, axis not shown) [Compound 782]: the IC50 is 100 to 1000 nM in assay [1]; 100 to 1000 nM in assay [2]; 100 to 1000 nM in assay [3]; 100 to 1000 nM in assay [4]; below 100 nM in assay [5]; below 100 nM in assay [6].

For the molecule `CCN(c1nc(OC[C@@]23CCCN2C[C@H](F)C3)nc2c(F)c(-c3ccc(F)c4sc(N)c(C#N)c34)c(C(F)(F)F)cc12)[C@H]1C[C@@H](C)N(C(=O)c2ccon2)C1` (atropisomer, axis not shown) [Compound 783], the IC50 in assay [1] was 100 to 1000 nM; in assay [2] it was 100 to 1000 nM; in assay [3] it was 100 to 1000 nM; in assay [4] it was 100 to 1000 nM; in assay [5], below 100 nM; in assay [6], below 100 nM.

As for `CCN(c1nc(OC[C@@]23CCCN2C[C@H](F)C3)nc2c(F)c(-c3ccc(F)c4sc(N)c(C#N)c34)c(C(F)(F)F)cc12)[C@H]1C[C@H]2CN(C(C)C)C(=O)N2C1` (atropisomer, axis not shown) [Compound 784], the IC50 in assay [1] was below 100 nM; in assay [2] it was below 100 nM; in assay [3] it was 100 to 1000 nM; in assay [4], below 100 nM; in assay [5] it was below 100 nM; in assay [6] it was below 100 nM.

As for `CN(c1nc(OC[C@@]23CCCN2C[C@H](F)C3)nc2c(F)c(-c3ccc(F)c4sc(N)c(C#N)c34)c(C(F)(F)F)cc12)[C@H]1CCN(C(=O)[C@@H]2CC2(F)F)C1` (atropisomer, axis not shown) [Compound 785], the IC50 in assay [1] is below 100 nM; in assay [2], 100 to 1000 nM; in assay [3] it was 100 to 1000 nM; in assay [4], 100 to 1000 nM; in assay [5], below 100 nM; in assay [6], below 100 nM.

As for `CC(C)C(=O)N1CC[C@H](N(C)c2nc(OC[C@@]34CCCN3C[C@H](F)C4)nc3c(F)c(-c4ccc(F)c5sc(N)c(C#N)c45)c(C(F)(F)F)cc23)C1` (atropisomer, axis not shown) [Compound 786], the IC50 in assay [1] was below 100 nM; in assay [2] it was below 100 nM; in assay [3] it was 100 to 1000 nM; in assay [4] it was 100 to 1000 nM; in assay [5], below 100 nM; in assay [6] it was below 100 nM.

Consider `CCN(c1nc(OC[C@@]23CCCN2C[C@H](F)C3)nc2c(F)c(-c3ccc(F)c4sc(N)c(C#N)c34)c(C(F)(F)F)cc12)[C@@H]1CCN(C(=O)[C@H]2CCO2)[C@@H]1C` (atropisomer, axis not shown) [Compound 788], for which the IC50 in assay [1], in assay [2], in assay [3], in assay [4], in assay [5] and in assay [6] was below 100 nM throughout.

In the case of `CCN(c1nc(OC[C@@]23CCCN2C[C@H](F)C3)nc2c(F)c(-c3ccc(F)c4sc(N)c(C#N)c34)c(C(F)(F)F)cc12)[C@@H]1CCN(C(=O)[C@H](C)OC)[C@@H]1C` (atropisomer, axis not shown) [Compound 789], the IC50 is below 100 nM in assay [1]; below 100 nM in assay [2]; 100 to 1000 nM in assay [3]; below 100 nM in assay [4]; below 100 nM in assay [5]; below 100 nM in assay [6].

For the molecule `CCN(c1nc(OC[C@@]23CCCN2C[C@H](F)C3)nc2c(F)c(-c3ccc(F)c4sc(N)c(C#N)c34)c(C(F)(F)F)cc12)[C@H]1CCN(C(=O)[C@H](C)CF)C1` (atropisomer, axis not shown) [Compound 790], the IC50 in assay [1] is below 100 nM; in assay [2] it was below 100 nM; in assay [3], 100 to 1000 nM; in assay [4] it was below 100 nM; in assay [5], below 100 nM; in assay [6], below 100 nM.

As for `CCN(c1nc(OC[C@@]23CCCN2C[C@H](F)C3)nc2c(F)c(-c3ccc(F)c4sc(N)c(C#N)c34)c(C(F)(F)F)cc12)[C@H]1CCN(C(=O)N2CC3(CC3)C2)C1` (atropisomer, axis not shown) [Compound 793], the half-inhibitory concentration (IC50) in assay [1], in assay [2], in assay [3], in assay [4], in assay [5] and in assay [6] was below 100 nM each time.

On to `CCN(c1nc(OC[C@@]23CCCN2C[C@H](F)C3)nc2c(F)c(-c3ccc(F)c4sc(N)c(C#N)c34)c(C(F)(F)F)cc12)[C@H]1CCN(C(=O)N2CC(OC(F)F)C2)C1` (atropisomer, axis not shown) [Compound 794], for which the IC50 in assay [1], in assay [2], in assay [3], in assay [4], in assay [5] and in assay [6] was below 100 nM throughout.

Take `CCN(c1nc(OC[C@@]23CCCN2C[C@H](F)C3)nc2c(F)c(-c3ccc(F)c4sc(N)c(C#N)c34)c(C(F)(F)F)cc12)[C@@H]1CN2C(=O)OC[C@]2(C)C1` (atropisomer, axis not shown) [Compound 795]: the IC50 in assay [1], in assay [2], in assay [3], in assay [4], in assay [5] and in assay [6] was below 100 nM each time.

For the molecule `CCN(c1nc(OC[C@@]23CCCN2C[C@H](F)C3)nc2c(F)c(-c3ccc(F)c4sc(N)c(C#N)c34)c(C(F)(F)F)cc12)[C@H]1CCN(C(=O)N(C)C)[C@H]1C` (atropisomer, axis not shown) [Compound 798], the IC50 in assay [1] is 100 to 1000 nM; in assay [2] it was 1000 to 10000 nM; in assay [3], 1000 to 10000 nM; in assay [4] it was 1000 to 10000 nM; in assay [5] it was 100 to 1000 nM; in assay [6], 100 to 1000 nM.

For the molecule `CCN(c1nc(OC[C@@]23CCCN2C[C@H](F)C3)nc2c(F)c(-c3ccc(F)c4sc(N)c(C#N)c34)c(C(F)(F)F)cc12)[C@H]1CCN(C(=O)OC)[C@H]1C` (atropisomer, axis not shown) [Compound 799], the 50% inhibitory concentration (IC50) in assay [1] fell in the range of 1000 to 10000 nM; in assay [2], 1000 to 10000 nM; in assay [3], 1000 to 10000 nM; in assay [4] it was 100 to 1000 nM; in assay [5], 100 to 1000 nM; in assay [6] it was 100 to 1000 nM.

The record behind these values is patent publication US20260042764A1, “COMPOSITIONS AND METHODS FOR INHIBITION OF KRAS” (TheRas, Inc., priority 2022, published 2026).
